# US6841563B1, “Aryloxy propanolamines for improving livestock production” (Eli Lilly and Company, priority 1999, dated 2005)
# Marks after values point to notes of the source that are not given here.
# Key:
# Format in all cases: in vivo
# [1] = Intravenous administration to cattle: serum non-esterified fatty acid (NEFA) and serum urea nitrogen (SUN) levels
# Description: Intravenous administration of the compounds of the present invention to cattle increases serum non-esterified fatty acids and decreases serum urea. In this Example, angus/angus cross calves, both heifers and steers, weighing approximately 282 pounds (128 kg) initially to 788 pounds (357.8 kg) over the course of these studies, were placed in pens at 5 calves per pen. The cattle were acclimated to the pens for at least 1 week prior to initiating the study.
# Calves were fed ad libitum twice daily, (approximately 6-15 pounds (2.7-6.8 kg)/day). During the treatment day, in the A.M. period, the feeding times were staggered to ensure that all animals were fed approximately one hour before the treatments were administered. During the P.M. treatment period, the cattle were fed immediately after receiving the P.M. injection.
# After taking a pretreatment (T=O) blood sample from each animal, a 40 μg per kilogram dose of a test compound was administered intravenously in the jugular vein at 6:30 A.M. and 2:30 P.M. Each test compound was administered at a concentration of 1.00-1.25 mg/ml in a treatment vehicle that was a 50/50 mixture of polyethylene glycol 200/water.
# A blood sample was taken at fifteen minutes post-treatment (T+15 min). The calves were returned to their respective pens until their next treatment, approximately eight hours later. The next morning at 6:30 A.M. a blood sample was collected from all calves at 24 hours post-treatment (T+24 h). All blood samples were analyzed for the non-esterified fatty acid level (NEFA) and serum urea nitrogen level (SUN). The post-treatment NEFA and SUN levels in each individual animal were compared with the levels found before treatment.
# [2] = Weight gain, feed efficiency, breast and leg quarter weights, last 28 days of growing period in broiler chickens; conditions: for Bone-in, Skin-on Breast Weight / Bone-in, Skin-on leg Quarter Weight / Dressing Percentage / Fat Pad Weight / Final Weight Day 49 / Hot Carcass Weight / Interim Weight Day 35 / Pen Feed Intake / Total Weight Gain (d 21-49) / Viscera Weight / Weight Gain Period 1 (d 21-35) / Weight Gain Period 2 (d 35-49) / Feed Efficiency F/G: day 21-49; for Feed Efficiency F/G: pen feed intake/total pen weight; for improvement of feed efficiency (feed/gain) compared with control: 28-day treatment period
# Description: Approximately 2500 Peterson-Hubbard, day-old, male chicks were used in a randomized, complete-block design with 3 treatments (Control and Compound 6 at 3 and 15 PPM (mg/kg feed)). The testing facility contained two wings, each containing 30 pens. The pens in each wing were divided into 6 blocks of 5 pens. Treatments were randomly allotted within each block. Each treatment consisted of 12 pens with 10 birds per pen.
# Day-of-age birds were obtained from Pine Manor Hatchery in Goshen, Ind. Approximately 40 birds per pen were set at random upon receipt. On day 16 of the growout period, all birds were weighed and the 15 birds closest to the block mean were selected. These birds were allowed to acclimate until day 21 of age. On this day, all remaining birds were weighed again, and the 10 birds/pen closest to the block mean were chosen for the treatment phase. Birds were provided ad libitum access to feed and water throughout the trial. All birds were fed a 23% crude protein corn-soy ration from day 1 until day 18 of age. The feed was changed to a 20% crude protein ration for day 18 to day 49. The treatment feed was mixed using the 20% crude protein basal ration. Treatments were administered in the feed from day 21 through day 49. An interim weight was taken on day 35. Feed consumption was calculated over the entire 28-day treatment period. Birds were weighed at trial completion (day 49), and were transported to Purdue University meat laboratory for slaughter and carcass measurements on day, 50. Weights of the hot carcass; fat pad; viscera; bone-in, skin-on breast; and bone-in, skin-on, leg quarter were taken on all animals.
# [3] = 28-day cattle study, orally administered Compound 6: growth and carcass measurements; conditions: for Feed efficiency / Yield grade (YG) / area of the longissimus dorsi muscle at the twelfth rib: oral, 28 days
# Procedure: Thirty-two Angus crossbred steers were blocked by weight into a heavy (4 heaviest blocks, avg. initial BW=1226 lb. (557 kg)) and a light (4 lightest blocks, avg. initial BW=1164 lb. (528 kg)) replication. The steers within each block were assigned to one of four treatments (8 steers/treatment) to investigate the effects of orally administered Compound 6 on the growth and carcass measurements when fed to cattle for 28 days immediately prior to slaughter. The treatments included a CONTROL (0.0 mg Compound 6 per kg BW), and three levels of Compound 6 (LOW, 0.125 mg Compound 6 per kg BW; MED, 0.250 mg Compound 6 per kg BW; HIGH, 0.500 mg Compound 6 per kg BW). Compound 6 was mixed with ground corn and fed to the steers as a top dress on a portion of their daily feed. The CONTROL steers received a similar amount of a ground corn top dress. The steers were required to consume the initial feed and top dress before the remaining amount of feed was issued. The basal ration was a commercially available feed (19.3% CP, DM basis). Both feed and water were available ad libitum. The steers were individually housed in 12 ft×48 ft pens equipped with an individual feed bunk and automatic waterer. On day 28 the steers were weighed and a blood sample collected prior to being shipped for slaughter and subsequent carcass evaluation.
compound,measurement,setting,value
"CC(C)(Cc1ccc(Oc2ncccc2C(N)=O)cc1)NC[C@H](O)COc1cccc2[nH]ccc12 [Compound 6, (S)-2-[4-[2-[2-Hydroxy-3-(1H-indol-4-yloxy)propylamino]-2-methylpropyl]-phenoxy]-3-pyridinecarboxamide]",ΔNEFA 24 Hours,"[1]; 40 μg per kilogram i.v. twice, T+24 h minus T=0, mean of five animals",-1.44 µmol/L
same,ΔNEFA 15 Min.,"[1]; 40 μg per kilogram i.v., T+15 min minus T=0, mean of five animals",40.7 µmol/L
same,change in vivo at 0.04 mg/kg,"[1]; Bos taurus, iv, 40 μg per kilogram i.v. twice, 24 hours post treatment vs baseline T=0, mean of five animals, read-out: Δ% SUN 24 Hours",-47%
same,lipolytic effects (non-esterified fatty acid levels),[1]; fifteen minutes and twenty-four hours after administration,modest lipolytic effects
same,anabolic effects (change in serum urea nitrogen levels),"[1]; twenty-four hours after administration, compared with the corresponding carboxamide regioisomers",significantly greater
same,"Bone-in, Skin-on Breast Weight",[2]; 3 PPM in feed,618.03* g
same,"Bone-in, Skin-on leg Quarter Weight",[2]; 3 PPM in feed,665.64** g
same,Dressing Percentage,[2]; 3 PPM in feed,71.14**
same,Fat Pad Weight,[2]; 3 PPM in feed,51.67 g
same,Final Weight Day 49,[2]; 3 PPM in feed,2.78** kg
same,Hot Carcass Weight,[2]; 3 PPM in feed,1995.58** g
same,Interim Weight Day 35,[2]; 3 PPM in feed,1.66* kg
same,Pen Feed Intake,[2]; 3 PPM in feed,41.22 kg
same,Total Weight Gain (d 21-49),[2]; 3 PPM in feed,2.09** kg
same,Viscera Weight,[2]; 3 PPM in feed,265.82 g
same,Weight Gain Period 1 (d 21-35),[2]; 3 PPM in feed,0.96* kg
same,Weight Gain Period 2 (d 35-49),[2]; 3 PPM in feed,1.12** kg
same,Feed Efficiency F/G,[2]; 3 PPM in feed,2.04
same,improvement of feed efficiency (feed/gain) compared with control,"[2]; 3 PPM, P=0.1426",6.85%
same,"increase in bone-in, skin-on, leg quarters weight","[2]; 3 PPM, P=0.0001",10.63%
same,increase in hot carcass weights over control,"[2]; 3 PPM, P=0.0001",6.50%
same,decrease in viscera weights compared to control,"[2]; 3 PPM, P=0.4004",1.54%
same,increase in weight gain over control,"[2]; 3 PPM, entire 28-day treatment period, P=0.0051",5.03%
same,increase in weight gain over control,"[2]; 3 PPM, first 14 days of the treatment period, P=0.0395",3.22%
same,increase in weight gain over control,"[2]; 3 PPM, last 14 days of treatment, P=0.0064",6.67%
same,"Bone-in, Skin-on Breast Weight",[2]; 15 PPM in feed,600.55 g
same,"Bone-in, Skin-on leg Quarter Weight",[2]; 15 PPM in feed,635.36** g
same,Dressing Percentage,[2]; 15 PPM in feed,71.16**
same,Fat Pad Weight,[2]; 15 PPM in feed,49.16 g
same,Final Weight Day 49,[2]; 15 PPM in feed,2.70 kg
same,Hot Carcass Weight,[2]; 15 PPM in feed,1928.17* g
same,Interim Weight Day 35,[2]; 15 PPM in feed,1.63 kg
same,Pen Feed Intake,[2]; 15 PPM in feed,39.09 kg
same,Total Weight Gain (d 21-49),[2]; 15 PPM in feed,2.01 kg
same,Viscera Weight,[2]; 15 PPM in feed,261.08 g
same,Weight Gain Period 1 (d 21-35),[2]; 15 PPM in feed,0.94 kg
same,Weight Gain Period 2 (d 35-49),[2]; 15 PPM in feed,1.07 kg
same,Feed Efficiency F/G,[2]; 15 PPM in feed,2.09
same,improvement of feed efficiency (feed/gain) compared with control,"[2]; 15 PPM, P=0.3594",4.57%
same,"increase in bone-in, skin-on, leg quarters weight","[2]; 15 PPM, P=0.0003",5.60%
same,increase in hot carcass weights over control,"[2]; 15 PPM, P=0.0434",2.90%
same,decrease in viscera weights compared to control,"[2]; 15 PPM, P=0.0764",3.29%
same,increase in weight gain over control,"[2]; 15 PPM, entire 28-day treatment period, P=0.5419",1.01%
same,increase in weight gain over control,"[2]; 15 PPM, first 14 days of the treatment period, P=0.7600",1.08%
same,increase in weight gain over control,"[2]; 15 PPM, last 14 days of treatment, P=0.5028",1.90%
same,effect on fat pad weight (fat accretion),"[2]; at either dose (3 PPM, 15 PPM)",no significant effect
same,increase in breast muscle weight (bone and skin attached),"[2]; high dose (15 PPM), P=0.5351",1.06%
same,increase in breast muscle weight (bone and skin attached),"[2]; low dose (3 PPM), P=0.0227",4.00%
same,Conformation score,"[3]; Compound 6 treatments vs CONTROL, P<0.005",higher
same,Fat thickness at the twelfth rib,"[3]; Compound 6 treatments vs CONTROL, P>0.78",not different
same,Dressing percent,"[3]; Compound 6 treatments vs CONTROL, F-test P=0.1138, Treatment P<0.05",to be higher
same,Feed efficiency,"[3]; HIGH, 0.500 mg per kg BW",4.18 pound of feed per pound of gain
same,Yield grade (YG),"[3]; HIGH, 0.500 mg per kg BW",2.46
same,area of the longissimus dorsi muscle at the twelfth rib,"[3]; HIGH, 0.500 mg per kg BW",14.5 in^2
same,Feed efficiency,"[3]; LOW, 0.125 mg per kg BW",4.36 pound of feed per pound of gain
same,area of the longissimus dorsi muscle at the twelfth rib,"[3]; LOW, 0.125 mg per kg BW",13.5 in^2
same,Yield grade (YG),"[3]; LOW, 0.125 mg per kg BW, lower value = more saleable meat",2.76
same,Feed efficiency,"[3]; MED, 0.250 mg per kg BW",4.19 pound of feed per pound of gain
same,Yield grade (YG),"[3]; MED, 0.250 mg per kg BW",2.51
same,area of the longissimus dorsi muscle at the twelfth rib,"[3]; MED, 0.250 mg per kg BW",14.3 in^2
same,"carcass composition (% fat, % protein, % moisture, % bone)","[3]; among the treatments, P>0.12, calculated by Hankins and Howe equations",did not differ statistically
same,USDA quality grade and marbling scores,"[3]; among the treatments, P>0.90",Neither the USDA quality grade nor marbling scores differed
same,Daily dry matter intake,"[3]; between the treatments (CONTROL, LOW, MED, HIGH), P>0.47",did not differ
